Literature values, collected in patent US11135271B2, “Glucagon derivatives with improved stability” (HANMI PHARM. CO., LTD., priority 2014, dated 2021).

Tests used:
[1] = according to reports
[2] = when taken for 1 year

Q: For `Cc1c(C(=O)NN2CCCCC2)nn(-c2ccc(Cl)cc2Cl)c1-c1ccc(Cl)cc1` [Rimonabant], which side-effect [1] is on record?
A: The side-effect was “central nervous system disorder”.

Q: Which side-effect [1] does the source give for `CC(C)CC(N(C)C)C1(c2ccc(Cl)cc2)CCC1` (stereo not drawn) [Sibutramine] here?
A: The side-effect was “cardiovascular side-effects”.

Q: For `CCCCCCCCCCC[C@@H](C[C@@H]1OC(=O)[C@H]1CCCCCC)OC(=O)[C@H](CC(C)C)NC=O` [Orlistat], which weight loss [2] is on record?
A: The weight loss was “about 4 kg”.
